System: A15T3 dsDNA (DNA, duplex) AAAAAAAAAAAAAAATCGTCGTCGTCGTCGTCGAAAAAAAAAAAAAAAAAGCAGTTGATCGTTTGGATACCCTGG/TTCGACGACGACGACGACGATTT
Assay: fluorescence quenching, log[(F0-F)/F] against log[DNA]
Conditions: unit not given; free DNA presumed to be A15T3 dsDNA; buffer of titration not stated

**Q.** How did the K turn out when `COc1cccc2c1C(=O)c1c(O)c3c(c(O)c1C2=O)C[C@@](O)(C(=O)CO)C[C@@H]3O[C@H]1C[C@H](N)[C@H](O)[C@H](C)O1` was run?
**A.** Its K is 0.026.

Reference: publication PMC8308135 (2021)
